ChEMBL document CHEMBL5727241, “Benzazepine dicarboxamide compounds with tertiary amide function” (2019)

How the values were obtained:
Toll-like receptor 7 = biological target: T1, Toll-like receptor 7 (Homo sapiens, UniProt Q9NYK1); assay: (§1) Pharmacological Assay: For TLR8 and TLR7 activity testing, HEK-Blue human TLR8 or TLR7 cells (Invivogen, San Diego, Calif., USA) are used, respectively. These cells are designed for studying the stimulation of human TLR8 or TLR7 by monitoring the activation of NF-κB. A SEAP (secreted embryonic alkaline phosphatase) reporter gene is placed under the control of the IFN-b minimal promoter fused to five NF-κB and AP-1-binding sites. Therefore the reporter expression is regulated by the NF-κB promoter upon stimulation of human TLR8 or TLR7 for 20 hours. The cell culture supernatant SEAP reporter activity was determined using Quanti Blue kit (Invivogen, San Diego, Ca, USA) at a wavelength of 640 nm, a detection medium that turns purple/blue in the presence of alkaline phosphatase.
T1 sequence (Q9NYK1 whole entry): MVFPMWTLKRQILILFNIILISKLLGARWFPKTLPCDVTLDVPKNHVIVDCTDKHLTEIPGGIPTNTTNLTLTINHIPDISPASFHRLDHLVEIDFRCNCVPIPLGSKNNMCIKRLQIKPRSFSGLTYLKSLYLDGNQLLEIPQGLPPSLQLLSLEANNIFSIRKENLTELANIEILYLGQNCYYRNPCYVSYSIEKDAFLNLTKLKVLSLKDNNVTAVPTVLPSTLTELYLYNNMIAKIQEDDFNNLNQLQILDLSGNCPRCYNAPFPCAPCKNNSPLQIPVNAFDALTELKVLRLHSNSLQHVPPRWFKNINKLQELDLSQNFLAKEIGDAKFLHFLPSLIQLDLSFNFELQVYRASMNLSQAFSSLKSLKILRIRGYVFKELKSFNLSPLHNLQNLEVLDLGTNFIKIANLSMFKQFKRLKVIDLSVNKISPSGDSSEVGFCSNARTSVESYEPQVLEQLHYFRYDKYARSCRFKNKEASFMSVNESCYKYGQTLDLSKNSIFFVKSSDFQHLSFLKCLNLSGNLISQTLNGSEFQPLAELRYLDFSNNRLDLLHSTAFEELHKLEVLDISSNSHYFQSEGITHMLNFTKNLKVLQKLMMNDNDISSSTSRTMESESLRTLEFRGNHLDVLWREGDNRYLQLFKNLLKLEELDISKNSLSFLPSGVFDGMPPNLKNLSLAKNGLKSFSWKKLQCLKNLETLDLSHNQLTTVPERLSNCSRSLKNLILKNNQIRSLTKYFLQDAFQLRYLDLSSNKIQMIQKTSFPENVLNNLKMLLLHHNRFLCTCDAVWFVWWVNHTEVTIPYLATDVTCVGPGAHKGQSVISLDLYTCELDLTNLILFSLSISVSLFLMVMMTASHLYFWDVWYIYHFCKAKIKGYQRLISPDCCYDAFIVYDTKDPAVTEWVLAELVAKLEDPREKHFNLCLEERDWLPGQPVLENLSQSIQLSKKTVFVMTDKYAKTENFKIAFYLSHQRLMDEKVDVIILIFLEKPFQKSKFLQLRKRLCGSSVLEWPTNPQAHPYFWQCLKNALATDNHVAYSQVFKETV

Toll-like receptor 8 = biological target: T2, Toll-like receptor 8 (Homo sapiens, UniProt Q9NR97); assay: as §1
T2 sequence (Q9NR97 whole entry): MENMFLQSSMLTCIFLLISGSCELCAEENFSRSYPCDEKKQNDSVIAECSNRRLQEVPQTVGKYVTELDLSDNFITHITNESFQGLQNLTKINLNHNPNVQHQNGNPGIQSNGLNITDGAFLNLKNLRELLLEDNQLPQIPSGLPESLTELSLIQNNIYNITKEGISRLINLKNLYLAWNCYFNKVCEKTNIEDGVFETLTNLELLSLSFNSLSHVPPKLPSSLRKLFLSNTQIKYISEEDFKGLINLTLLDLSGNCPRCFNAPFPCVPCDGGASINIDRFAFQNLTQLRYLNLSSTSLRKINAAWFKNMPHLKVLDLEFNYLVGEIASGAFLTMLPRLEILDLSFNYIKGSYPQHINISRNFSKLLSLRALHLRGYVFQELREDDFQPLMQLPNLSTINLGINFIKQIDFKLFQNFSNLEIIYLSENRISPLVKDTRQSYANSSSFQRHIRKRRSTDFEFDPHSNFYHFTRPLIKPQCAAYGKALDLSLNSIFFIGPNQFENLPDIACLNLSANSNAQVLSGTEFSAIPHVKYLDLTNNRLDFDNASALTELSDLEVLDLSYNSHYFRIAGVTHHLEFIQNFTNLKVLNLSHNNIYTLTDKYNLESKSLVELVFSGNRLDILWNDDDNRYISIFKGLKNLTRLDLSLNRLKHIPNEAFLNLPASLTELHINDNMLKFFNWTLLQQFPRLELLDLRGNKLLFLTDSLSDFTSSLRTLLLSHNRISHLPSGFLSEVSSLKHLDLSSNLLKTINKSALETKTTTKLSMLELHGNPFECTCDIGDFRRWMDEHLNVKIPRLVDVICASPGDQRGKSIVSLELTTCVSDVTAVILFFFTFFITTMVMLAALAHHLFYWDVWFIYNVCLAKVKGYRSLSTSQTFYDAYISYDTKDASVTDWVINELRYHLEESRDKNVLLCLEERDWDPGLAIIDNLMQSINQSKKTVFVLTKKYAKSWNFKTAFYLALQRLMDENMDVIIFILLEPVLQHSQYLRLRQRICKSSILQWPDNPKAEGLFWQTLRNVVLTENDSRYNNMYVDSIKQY

EC50 (Toll-like receptor 7): 15 µM
EC50 (Toll-like receptor 8): 0.004 µM
Structure (SMILES): CCCN(CCC)C(=O)C1=Cc2ccc(C(=O)N3CC(OCc4ccccc4)C3)cc2N=C(N)C1
